Reference: patent publication US11771649B1, “Pharmaceutical lotion or salve utilizing mixed metal hydroxide antimicrobial charged particles” (Magalum LLC, priority 2021, dated 2023)

Tested on: methicillin resistant Staphylococcus aureus
Experiment: Example XXI: wound infected with methicillin resistant Staphylococcus aureus
Assay type: in vivo, horse
Text: A 4 year old quarter horse mare had received a 4 inch cut on the chest from an encounter with a corral fence and had developed an infection. […] At that time, a specimen was taken from the wound and sent to a diagnostic lab for identification. Treatment of the wound was then started with silver sulfa diazole. When the results were returned from the diagnostic lab, the pathogen was identified as methicillin resistant Staphylococcus aureus. At that time, salve as described in Example 4 was applied to the wound, and then reapplied twice daily.

| Compound | state of wound (prior treatment, after two days) | state of wound (10,000 units per pound body weight injection, after 72 hours) |
| --- | --- | --- |
| NC(=O)N/N=C/c1ccc([N+](=O)[O-])o1 [nitrofurazone ointment, nitrofurazone] | no positive result |  |
| penicillin |  | no improvement was again noted |
